Source: PubChem BioAssay AID1963840 (Molecular Pharmacology Branch, DTP, NCI, 2024)
pIC50: −log10 of the molar value.

System: 695427-040-R-J1-PDC complex spheroid viability
Test: Anticancer human tumor 695427-040-R-J1-PDC patient-derived colon adenocarcinoma cell line growth inhibition [POLQ]
Settings: for pIC50: curve of first compound; for viability, T/C: stronger effect = lower value
Outline: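 Patient-derived tumour cells were co-cultured with HUVEC and mesenchymal stem cells as multicellular spheroids at 37 °C. They were treated with POLQ inhibitors (novobiocin, ART-558, RP6685) alone or combined with other agents. Top concentrations were at or near clinical Cmax (otherwise 10 microM; SN-38 at 1 microM), decreasing in half-log steps.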

[1] = second compound 0.0316 µM, first compound 0.0316 µM
[2] = second compound 0.0316 µM, first compound 0.1 µM
[3] = second compound 0.0316 µM, first compound 0.316 µM
[4] = second compound 0.0316 µM, first compound 1 µM
[5] = second compound 0.0316 µM, first compound 3.16 µM
[6] = second compound 0.0316 µM, first compound 10 µM
[7] = second compound 0.1 µM, first compound 0.0316 µM
[8] = second compound 0.1 µM, first compound 0.1 µM
[9] = second compound 0.1 µM, first compound 0.316 µM
[10] = second compound 0.1 µM, first compound 1 µM
[11] = second compound 0.1 µM, first compound 3.16 µM
[12] = second compound 0.1 µM, first compound 10 µM
[13] = second compound 0.316 µM, first compound 0.0316 µM
[14] = second compound 0.316 µM, first compound 0.1 µM
[15] = second compound 0.316 µM, first compound 0.316 µM
[16] = second compound 0.316 µM, first compound 1 µM
[17] = second compound 0.316 µM, first compound 3.16 µM
[18] = second compound 0.316 µM, first compound 10 µM
[19] = second compound 1 µM, first compound 0.0316 µM
[20] = second compound 1 µM, first compound 0.1 µM
[21] = second compound 1 µM, first compound 0.316 µM
[22] = second compound 1 µM, first compound 1 µM
[23] = second compound 1 µM, first compound 3.16 µM
[24] = second compound 1 µM, first compound 10 µM
[25] = second compound 3.16 µM, first compound 0.0316 µM
[26] = second compound 3.16 µM, first compound 0.1 µM
[27] = second compound 3.16 µM, first compound 0.316 µM
[28] = second compound 3.16 µM, first compound 1 µM
[29] = second compound 3.16 µM, first compound 3.16 µM
[30] = second compound 3.16 µM, first compound 10 µM
[31] = second compound 10 µM, first compound 0.0316 µM
[32] = second compound 10 µM, first compound 0.1 µM
[33] = second compound 10 µM, first compound 0.316 µM
[34] = second compound 10 µM, first compound 1 µM
[35] = second compound 10 µM, first compound 3.16 µM
[36] = second compound 10 µM, first compound 10 µM
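Further: spheroids exposed to compounds for seven days.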
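Wherever viability, T/C is given: 100% = DMSO vehicle control viability.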

Structure (SMILES): CC1COCCN1c1cc(C2(S(C)(=N)=O)CC2)nc(-c2ccnc3[nH]ccc23)n1 (stereo unspecified) + COC1C(OC(N)=O)C(O)C(Oc2ccc3c(O)c(NC(=O)c4ccc(O)c(CC=C(C)C)c4)c(=O)oc3c2C)OC1(C)C
- pIC50 (second compound 0.0316 µM): < 5.00
- pIC50 (second compound 0.1 µM): < 5.00
- pIC50 (second compound 0.316 µM): < 5.00
- pIC50 (second compound 1 µM): < 5.00
- pIC50 (second compound 3.16 µM): < 5.00
- pIC50 (second compound 10 µM): < 5.00
- viability, T/C [1]: 96.3%
- viability, T/C [2]: 101%
- viability, T/C [3]: 101%
- viability, T/C [4]: 101%
- viability, T/C [5]: 93.9%
- viability, T/C [6]: 86%
- viability, T/C [7]: 124%
- viability, T/C [8]: 89.4%
- viability, T/C [9]: 104%
- viability, T/C [10]: 96.8%
- viability, T/C [11]: 97.6%
- viability, T/C [12]: 80.8%
- viability, T/C [13]: 104%
- viability, T/C [14]: 89.7%
- viability, T/C [15]: 101%
- viability, T/C [16]: 101%
- viability, T/C [17]: 101%
- viability, T/C [18]: 81.7%
- viability, T/C [19]: 104%
- viability, T/C [20]: 105%
- viability, T/C [21]: 102%
- viability, T/C [22]: 99.3%
- viability, T/C [23]: 107%
- viability, T/C [24]: 86.5%
- viability, T/C [25]: 94.1%
- viability, T/C [26]: 90.7%
- viability, T/C [27]: 99.7%
- viability, T/C [28]: 97.1%
- viability, T/C [29]: 107%
- viability, T/C [30]: 85.9%
- viability, T/C [31]: 104%
- viability, T/C [32]: 102%
- viability, T/C [33]: 102%
- viability, T/C [34]: 97.7%
- viability, T/C [35]: 102%
- viability, T/C [36]: 79%

Structure (SMILES): CCCS(=O)(=O)Nc1ccc(F)c(C(=O)c2c[nH]c3ncc(-c4ccc(Cl)cc4)cc23)c1F + COC1C(OC(N)=O)C(O)C(Oc2ccc3c(O)c(NC(=O)c4ccc(O)c(CC=C(C)C)c4)c(=O)oc3c2C)OC1(C)C
- pIC50 (second compound 0.0316 µM): < 5.00
- pIC50 (second compound 0.1 µM): < 5.00
- pIC50 (second compound 0.316 µM): < 5.00
- pIC50 (second compound 1 µM): < 5.00
- pIC50 (second compound 3.16 µM): < 5.00
- pIC50 (second compound 10 µM): < 5.00
- viability, T/C [1]: 102%
- viability, T/C [2]: 102%
- viability, T/C [3]: 98.2%
- viability, T/C [4]: 111%
- viability, T/C [5]: 116%
- viability, T/C [6]: 80.7%
- viability, T/C [7]: 103%
- viability, T/C [8]: 94.3%
- viability, T/C [9]: 108%
- viability, T/C [10]: 111%
- viability, T/C [11]: 107%
- viability, T/C [12]: 78.6%
- viability, T/C [13]: 106%
- viability, T/C [14]: 98.1%
- viability, T/C [15]: 97%
- viability, T/C [16]: 105%
- viability, T/C [17]: 118%
- viability, T/C [18]: 88.7%
- viability, T/C [19]: 102%
- viability, T/C [20]: 108%
- viability, T/C [21]: 102%
- viability, T/C [22]: 109%
- viability, T/C [23]: 107%
- viability, T/C [24]: 81.7%
- viability, T/C [25]: 110%
- viability, T/C [26]: 107%
- viability, T/C [27]: 100%
- viability, T/C [28]: 106%
- viability, T/C [29]: 109%
- viability, T/C [30]: 79.4%
- viability, T/C [31]: 107%
- viability, T/C [32]: 102%
- viability, T/C [33]: 91.8%
- viability, T/C [34]: 113%
- viability, T/C [35]: 116%
- viability, T/C [36]: 77%

Structure (SMILES): CNCc1ccc(-c2[nH]c3cc(F)cc4c3c2CCNC4=O)cc1 + COC1C(OC(N)=O)C(O)C(Oc2ccc3c(O)c(NC(=O)c4ccc(O)c(CC=C(C)C)c4)c(=O)oc3c2C)OC1(C)C
- pIC50 (second compound 0.0316 µM): < 5.00
- pIC50 (second compound 0.1 µM): < 5.00
- pIC50 (second compound 0.316 µM): < 5.00
- pIC50 (second compound 1 µM): < 5.00
- pIC50 (second compound 3.16 µM): < 5.00
- pIC50 (second compound 10 µM): < 5.00
- viability, T/C [1]: 94.5%
- viability, T/C [2]: 96.1%
- viability, T/C [3]: 108%
- viability, T/C [4]: 99.7%
- viability, T/C [5]: 112%
- viability, T/C [6]: 103%
- viability, T/C [7]: 108%
- viability, T/C [8]: 95.1%
- viability, T/C [9]: 107%
- viability, T/C [10]: 103%
- viability, T/C [11]: 112%
- viability, T/C [12]: 111%
- viability, T/C [13]: 101%
- viability, T/C [14]: 99.8%
- viability, T/C [15]: 94.5%
- viability, T/C [16]: 96.8%
- viability, T/C [17]: 115%
- viability, T/C [18]: 105%
- viability, T/C [19]: 97.6%
- viability, T/C [20]: 95%
- viability, T/C [21]: 105%
- viability, T/C [22]: 103%
- viability, T/C [23]: 112%
- viability, T/C [24]: 115%
- viability, T/C [25]: 101%
- viability, T/C [26]: 99.3%
- viability, T/C [27]: 108%
- viability, T/C [28]: 93.2%
- viability, T/C [29]: 117%
- viability, T/C [30]: 103%
- viability, T/C [31]: 98.1%
- viability, T/C [32]: 91.8%
- viability, T/C [33]: 106%
- viability, T/C [34]: 109%
- viability, T/C [35]: 114%
- viability, T/C [36]: 113%
